# Measured values as given in US11090304B2 (Amgen Inc., priority 2018, dated 2021).
# Molecular target: GDP-bound KRAS protein (aa 1-169), containing both G12C and C118A amino acid substitutions (Homo sapiens, UniProt P01116, C118A/G12C)
# Assay: Coupled nucleotide exchange assay (SOS-mediated, AlphaScreen)
# Assay type: biochemical
# Conditions: 5 min compound pre-incubation
# Sequence of GDP-bound KRAS protein (aa 1-169), containing both G12C and C118A amino acid substitutions (P01116 1-169 isoform P01116-2 G12C/C118A): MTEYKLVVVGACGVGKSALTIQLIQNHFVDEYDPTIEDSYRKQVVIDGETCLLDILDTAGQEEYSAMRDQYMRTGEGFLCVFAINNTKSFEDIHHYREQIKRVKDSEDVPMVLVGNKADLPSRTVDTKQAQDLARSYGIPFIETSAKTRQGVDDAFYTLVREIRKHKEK
row,Coupled exchange IC50 (5 min),Structure (SMILES)
1,0.677 | nda μM,"C=CC(=O)N1CCN(c2nc(=O)n(-c3c(C(C)C)ncnc3N(C)C)c3nc(-c4ccccc4F)c(Cl)cc23)[C@@H](C)C1 (single isomer, unassigned) [Example 140-2]"
2,3.22 | nda μM,"C=CC(=O)N1CCN(c2nc(=O)n(-c3ccccc3C(C)C)c3cc(-c4ccccc4F)c(Cl)nc23)[C@@H](C)C1 (single isomer, unassigned) [Example 110-1]"
3,1.21 | nda μM,"C=CC(=O)N1CCN(c2nc(=O)n(-c3ccccc3C3CCC3)c3nc(-c4c(O)cccc4F)c(Cl)cc23)[C@@H](C)C1 (single isomer, unassigned) [Example 54-10-1]"
4,5.29 | nda μM,"C=CC(=O)N1CCN(c2nc(=O)n(-c3ccccc3S(F)(F)(F)(F)F)c3nc(-c4c(O)cccc4F)c(Cl)cc23)[C@@H](C)C1 (single isomer, unassigned) [Example 56-1-1]"
5,0.501 | nda μM,"C=CC(=O)N1CCN(c2nc(=O)n(-c3c(C4CC4)ncnc3C3CC3)c3nc(-c4ccccc4F)c(F)cc23)[C@@H](C)C1 [Example 59-5, 1-(4,6-dicyclopropyl-5-pyrimidinyl)-6-fluoro-7-(2-fluorophenyl)-4-((2S)-2-methyl-4-(2-propenoyl)-1-piperazinyl)pyrido[2,3-d]pyrimidin-2(1H)-one]"
6,3.45 | nda μM,"C=CC(=O)N1CCN(c2nc(=O)n(-c3c(C)cccc3C(C)C)c3nc(-c4ccccc4F)c(C)cc23)[C@@H](C)C1 (single isomer, unassigned) [Example 102-1]"
7,46.1 | nda μM,"C=CC(=O)N1CCN(c2nc(=O)n(-c3c(F)cccc3F)c3nc(Cl)c(Cl)cc23)[C@@H](C)C1 [Example 60-16, 6,7-dichloro-1-(2,6-difluorophenyl)-4-((2S)-2-Methyl-4-(2-propenoyl)-1-piperazinyl)pyrido[2,3-d]pyrimidin-2(1H)-one]"
8,99.5 | nda μM,"C=CC(=O)N1CCN(c2nc(=O)n(-c3c(CC)cccc3CC)c3nc(N4CCC[C@@H]4CO)c(Cl)cc23)[C@@H](C)C1 [Example 66-9, 6-chloro-1-(2,6-diethylphenyl)-7-((2R)-2-(hydroxymethyl)-1-pyrrolidinyl)-4-((2S)-2-methyl-4-(2-propenoyl)-1-piperazinyl)pyrido[2,3-d]pyrimidin-2(1H)-one]"
9,26.4 | nda μM,"C=CC(=O)N1CCN(c2nc(=O)n(-c3c(CC)cccc3CC)c3nc(N4CCC(C)C4)c(Cl)cc23)[C@@H](C)C1 (stereo partly drawn) [Example 66-10, 6-chloro-1-(2,6-diethylphenyl)-4-((2S)-2-methyl-4-(2-propenoyl)-1-piperazinyl)-7-(3-methyl-1-pyrrolidinyl)pyrido[2,3-d]pyrimidin-2(1H)-one]"
10,0.86 | nda μM,"C=CC(=O)N1CCN(c2nc(=O)n(-c3c(C)ccnc3C(C)C)c3nc(-c4ccccc4F)c(Cl)nc23)[C@@H](C)C1 (single isomer, unassigned) [Example 111-2]"
11,1.19 | nda μM,"C=CC(=O)N1CCN(c2nc(=O)n(-c3ccccc3C(C)C)c3nc(-c4ncccc4Cl)c(Cl)cc23)[C@@H](C)C1 [Example 54-94, 6-chloro-7-(3-chloro-2-pyridinyl)-4-((2S)-2-methyl-4-(2-propenoyl)-1-piperazinyl)-1-(2-(2-propanyl)phenyl)pyrido [2,3-d]pyrimidin-2(1H)-one]"
12,10.2 | nda μM,"C=CC(=O)N1CCN(c2nc(=O)n(-c3c(C#N)cccc3C(C)C)c3nc(-c4ccccc4F)c(Cl)cc23)[C@@H](C)C1 (single isomer, unassigned) [Example 60-20-1]"
13,4.51 | nda μM,"C=CC(=O)N1C[C@H](C)N(c2nc(=O)n(-c3c(C)ccnc3C(C)C)c3nc(Cl)c(F)cc23)[C@@H](C)C1 (atropisomer, axis not shown; (M)) [Example 72-12, (M)-7-chloro-4-((2S,6S)-2,6-dimethyl-4-(2-propenoyl)-1-piperazinyl)-6-fluoro-1-(4-methyl-2-(2-propanyl)-3-pyridinyl)pyrido[2,3-d]pyrimidin-2(1H)-one]"
14,6.31 | nda μM,"C=CC(=O)N1CCN(c2nc(=O)n(-c3c(C)ccnc3C(C)C)c3nc(-c4ccc(F)cc4F)c(F)cc23)[C@@H](C)C1 (single isomer, unassigned) [Example 58-10-2]"
15,3.79 | nda μM,"C=CC(=O)N1CCN(c2nc(=O)n(-c3c(C)ccnc3CC)c3nc(-c4ccccc4F)c(F)cc23)[C@@H](C)C1 [Example 57-16, 1-(2-ethyl-4-methyl-3-pyridinyl)-6-fluoro-7-(2-fluorophenyl)-4-((2S)-2-methyl-4-(2-propenoyl)-1-piperazinyl)pyrido[2,3-d]pyrimidin-2(1H)-one]"
16,8.7 | nda μM,"C=CC(=O)N1CCN(c2nc(=O)n(-c3c(C)cccc3C(C)C)c3nc(-c4nc(N)cc5ccccc45)c(F)cc23)[C@@H](C)C1 (single isomer, unassigned) [Example 71-2-1]"

row,Coupled exchange IC50 (5 min),Structure (SMILES)
1,0.351 | nda μM,"C=CC(=O)N1CCN(c2nc(=O)n(-c3cn[nH]c3C(C)C)c3nc(-c4ccccc4F)c(Cl)cc23)[C@@H](C)C1 [Example 55-42, 6-chloro-7-(2-fluorophenyl)-4-((2S)-2-methyl-4-(2-propenoyl)-1-piperazinyl)-1-(5-(2-propanyl)-1H-pyrazol-4-yl)pyrido[2,3-d]pyrimidin-2(1H)-one]"
2,0.377 | nda μM,"C=CC(=O)N1CCN(c2nc(=O)n(-c3c(C)cnn3C(C)(C)C)c3nc(-c4ccccc4F)c(Cl)cc23)[C@@H](C)C1 [Example 55-38, 6-chloro-7-(2-fluorophenyl)-1-(4-methyl-1-(2-methyl-2-propanyl)-1H-pyrazol-5-yl)-4-((2S)-2-methyl-4-(2-propenoyl)-1-piperazinyl)pyrido[2.3-d]pyrimidin-2(1H)-one]"
3,77.7 | nda μM,"C=CC(=O)N1CCN(c2nc(=O)c(-c3ccccc3C)c3cc(-c4ccccc4F)c(C)nn23)[C@@H](C)C1 [77-2, 3-(2-fluorophenyl)-2-methyl-5-(2-methylphenyl)-8-((2S)-2-methyl-4-(2-propenoyl)-1-piperazinyl)-6H-pyrimido[1,6-b]pyridazin-6-one]"
4,1.96 | nda μM,"C=CC(=O)N1CCN(c2nc(=O)n(-c3c(C4CC4)ccnc3C)c3nc(-c4ccccc4F)c(F)cc23)[C@@H](C)C1 [Example 58-20, 1-(4-cyclopropyl-2-methyl-3-pyridinyl)-6-fluoro-7-(2-fluorophenyl)-4-((2S)-2-methyl-4-(2-propenoyl)-1-piperazinyl)pyrido[2,3-d]pyrimidin-2(1H)-one]"
5,1.76 | nda μM,"C=CC(=O)N1CCN(c2nc(=O)n(-c3c(C)ccnc3CC)c3nc(-c4ccccc4F)c(F)cc23)[C@@H](C)C1 (single isomer, unassigned) [Example 57-16-1]"
6,88 | nda μM,"C=CC(=O)N1CCN(c2nc(=O)n(-c3c(CC)cccc3CC)c3nc(N4CC[C@@H](F)C4)c(Cl)cc23)[C@@H](C)C1 [Example 66-7, 6-chloro-1-(2,6-diethylphenyl)-7-((3R)-3-fluoro-1-pyrrolidinyl)-4-((2S)-2-methyl-4-(2-propenoyl)-1-piperazinyl)pyrido[2,3-d]pyrimidin-2(1H)-one]"
7,13.6 | nda μM,"C=CC(=O)N1CCN(c2nc(C(N)=O)c(-c3ccccc3C(C)C)c3nc(-c4ccccc4F)c(Cl)cc23)CC1 [Example 147, 3-Chloro-2-(2-fluorophenyl)-8-(2-(2-propanyl)phenyl)-5-(4-(2-propenoyl)-1-piperazinyl)-1,6-naphthyridine-7-carboxamide]"
8,15.9 | nda μM,"C=CC(=O)N1CCN(c2nc(=O)n(-c3c(CC)cccc3CC)c3nc(N4CCOC[C@H]4C)c(Cl)cc23)[C@@H](C)C1 [Example 66-33, 6-chloro-1-(2,6-diethylphenyl)-7-((3R)-3-methyl-4-morpholinyl)-4-((2S)-2-methyl-4-(2-propenoyl)-1-piperazinyl)pyrido[2,3-d]pyrimidin-2(1H)-one]"
9,10.7 | nda μM,"C=CC(=O)N1CCN(c2nc(=O)n(-c3ccccc3C(C)C)c3nc(-c4ccco4)c(Cl)cc23)[C@@H](C)C1 [Example 54-47, 6-chloro-7-(2-furanyl)-4-((2S)-2-methyl-4-(2-propenoyl)-1-piperazinyl)-1-(2-(2-propanyl)phenyl)pyrido [2,3-d]pyrimidin-2(1H)-one]"
10,36.9 | nda μM,"C=CC(=O)N1CCN(c2nc(=O)n(-c3c(O)cccc3C(C)C)c3nc(-c4ccccc4F)c(Cl)cc23)[C@@H](C)C1 (single isomer, unassigned) [Example 55-26-1]"
11,1.19 | nda μM,"C=CC(=O)N1CCN(c2nc(=O)n(-c3c(C)ccnc3C(C)C)c3nc(-c4ccccc4F)c(Cl)cc23)[C@H](C(F)F)C1 (single isomer, unassigned) [Example 78-3-1]"
12,38.6 | nda μM,"C=CC(=O)N1CCN(c2cc(=O)n(CC(C)(C)C)c3nc(-c4ccccc4F)ccc23)CC1 [Example 123, 1-(2,2-Dimethylpropyl)-7-(2-fluorophenyl)-4-(4-(2-propenoyl)-1-piperazinyl)-1,8-naphthyridin-2(1H)-one]"
13,17.5 | nda μM,"C=CC(=O)N1CCN(c2nc(=O)n(-c3c(C)ccnc3C(C)C)c3nc(Cl)c(F)cc23)[C@@H](C)C1 [Example 58-21, 7-chloro-6-fluoro-1-(4-methyl-2-(2-propanyl)-3-pyridinyl)-4-((2S)-2-methyl-4-(2-propenoyl)-4-piperazinyl)pyrido[2,3-d]pyrimidin-2(1H)-one]"
14,1.84 | nda μM,"C=CC(=O)N1CCN(c2nc(=O)n(-c3ccccc3C(C)C)c3nc(-c4cc(OC(F)F)ccc4F)c(Cl)cc23)[C@@H](C)C1 (single isomer, unassigned) [Example 54-51-2]"
15,7.71 | nda μM,"C=CC(=O)N1CCN(c2nc(=O)n(-c3cncnc3C(C)(C)C)c3nc(-c4ccccc4F)c(Cl)cc23)[C@@H](C)C1 (single isomer, unassigned) [Example 54-110-1]"
16,2.87 | nda μM,"C=CC(=O)N1CCN(c2nc(=O)n(-c3c(CO)cccc3C(C)C)c3nc(-c4ccccc4F)c(Cl)cc23)[C@@H](C)C1 (single isomer, unassigned) [Example 55-43-1]"
